In PMC7429951 (Journal of Medicinal Chemistry, 2020):

Experiments:
HDAC-3 = biological target: T1, HDAC-3 (Homo sapiens, UniProt O15379); experiment: HDAC-3 inhibitor screening kit; assay type: biochemical
T1 construct: purchased Sigma-Aldrich (Saint Louis, MO)
Source text: (§1) Previously, we described N-aryl mercaptoacetamides with high selectivity for the bacterial over a broad range of human MMPs.[29],[30] MMPs are calcium-dependent zinc metalloproteases that play a pivotal role in numerous biochemical processes in humans.[39],[40] Based on the depth of their S1′ binding pocket, MMPs can be divided into three classes: deep (e.g., MMP-3 and -14), intermediate (e.g., MMP-2 and -8), and shallow (e.g., MMP-1 and -7). With the aim to explore the interactions of our inhibitors with all three pocket types, which could help us to assess potential effects on other not-tested representatives, we chose a panel of six MMPs, comprising two members of each class. In addition, HDAC-3, HDAC-8, and TACE (ADAM-17)—enzymes involved in gene expression and the processing of TNF-α,[41],[42] respectively—were selected as important additional human off-targets.

ColQ1 = ColQ1 (Bacillus cereus, UniProt B9J3S4); experiment: Ex vivo pig-skin model, hydroxyproline quantification; parameters: species or system B. cereus; conditions: pig-skin explants, 300 nM ColQ1, defined concentrations of compound, vs control
Sequence of ColQ1 (B9J3S4 94-965): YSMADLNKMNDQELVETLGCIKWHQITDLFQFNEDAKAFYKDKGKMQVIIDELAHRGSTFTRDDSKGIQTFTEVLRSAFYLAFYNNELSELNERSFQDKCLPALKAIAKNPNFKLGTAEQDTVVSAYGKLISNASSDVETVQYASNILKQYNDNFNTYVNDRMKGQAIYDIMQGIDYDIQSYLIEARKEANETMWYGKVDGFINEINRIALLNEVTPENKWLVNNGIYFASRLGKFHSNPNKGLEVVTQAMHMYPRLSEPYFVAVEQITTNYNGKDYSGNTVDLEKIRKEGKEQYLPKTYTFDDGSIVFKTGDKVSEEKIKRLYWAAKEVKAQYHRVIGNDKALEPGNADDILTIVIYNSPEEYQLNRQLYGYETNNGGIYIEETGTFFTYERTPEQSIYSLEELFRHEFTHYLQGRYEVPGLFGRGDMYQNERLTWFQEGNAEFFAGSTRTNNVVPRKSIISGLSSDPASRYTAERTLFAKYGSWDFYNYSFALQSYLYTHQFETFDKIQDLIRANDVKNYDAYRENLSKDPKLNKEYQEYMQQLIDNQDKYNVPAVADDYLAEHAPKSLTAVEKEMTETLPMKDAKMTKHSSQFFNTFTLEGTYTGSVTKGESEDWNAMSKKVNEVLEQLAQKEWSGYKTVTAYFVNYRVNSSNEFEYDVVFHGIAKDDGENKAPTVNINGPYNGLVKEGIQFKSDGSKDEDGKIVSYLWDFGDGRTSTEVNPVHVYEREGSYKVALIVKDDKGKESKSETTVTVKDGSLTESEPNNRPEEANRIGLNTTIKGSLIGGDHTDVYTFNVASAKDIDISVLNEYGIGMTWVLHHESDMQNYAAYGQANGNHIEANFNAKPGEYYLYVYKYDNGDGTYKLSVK
Source text: We established an ex vivo model based on pig skin to address the impact of our inhibitors on living mammalian tissue and on the contained collagen as the natural substrate of collagenase. We challenged the skin, prepared from the ear of freshly slaughtered pigs, with pure ColQ1 from B. cereus to degrade collagen. We assessed the activity of ColQ1 by quantifying the formation of hydroxyproline as an indicator for collagen turnover (Figure 4). Optimization of the assay conditions for the model consisted of examining different buffer conditions and different protein concentrations (Figures S1 and S2). To evaluate the potential effect of 25 on collagen turnover, we incubated the skin with ColQ1 in the absence and presence of defined concentrations of this compound. […] The good performance of our inhibitors in this model is a sound starting point for their subsequent testing under in vivo conditions. We expect that our inhibitors will accelerate the in vivo healing process, by preventing the distribution of infection. […]
Skin explants were obtained from freshly slaughtered pig ears, which were supplied by a local slaughterhouse. […] Absorbance was measured using a PHERAstar plate reader (BMG Labtech). The absorbance values were converted into the hydroxyproline concentration (μg/mL) using the calibration curve of hydroxyproline as a reference (Figure S3).

[1] = biological target: collagenase unit of ColG (ColG-CU) (Hathewaya histolytica, UniProt Q9X721); experiment: biochemical; parameters: species or system C. histolyticum; conditions: read-out: ColG-CU % inhibition @ 100 μM
Sequence of collagenase unit of ColG (ColG-CU) (Q9X721 111-786): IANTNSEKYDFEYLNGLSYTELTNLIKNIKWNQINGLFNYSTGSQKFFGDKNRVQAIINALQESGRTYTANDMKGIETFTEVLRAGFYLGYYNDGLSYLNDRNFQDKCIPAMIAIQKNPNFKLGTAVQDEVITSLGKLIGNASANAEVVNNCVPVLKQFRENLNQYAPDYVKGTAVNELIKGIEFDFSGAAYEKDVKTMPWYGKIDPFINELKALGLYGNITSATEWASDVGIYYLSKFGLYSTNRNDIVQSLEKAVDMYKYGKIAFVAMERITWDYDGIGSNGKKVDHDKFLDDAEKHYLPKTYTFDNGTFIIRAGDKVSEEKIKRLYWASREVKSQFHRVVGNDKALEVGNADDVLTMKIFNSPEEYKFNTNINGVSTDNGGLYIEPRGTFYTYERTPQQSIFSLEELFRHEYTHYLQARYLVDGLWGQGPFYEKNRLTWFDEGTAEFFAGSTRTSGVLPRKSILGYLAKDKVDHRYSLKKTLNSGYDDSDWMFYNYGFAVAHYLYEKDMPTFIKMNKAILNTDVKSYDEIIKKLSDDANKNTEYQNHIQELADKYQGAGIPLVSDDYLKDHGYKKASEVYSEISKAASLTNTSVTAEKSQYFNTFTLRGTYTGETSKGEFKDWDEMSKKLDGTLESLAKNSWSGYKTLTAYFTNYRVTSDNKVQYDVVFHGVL

MMP-1 = biological target: T2, MMP-1 (Homo sapiens, UniProt P03956); experiment: MMP-1 off-target inhibition; assay type: biochemical; conditions: read-out: MMP-1 % inhibition @ 100 μM; 100 μM compound
T2 sequence (P03956 100-469): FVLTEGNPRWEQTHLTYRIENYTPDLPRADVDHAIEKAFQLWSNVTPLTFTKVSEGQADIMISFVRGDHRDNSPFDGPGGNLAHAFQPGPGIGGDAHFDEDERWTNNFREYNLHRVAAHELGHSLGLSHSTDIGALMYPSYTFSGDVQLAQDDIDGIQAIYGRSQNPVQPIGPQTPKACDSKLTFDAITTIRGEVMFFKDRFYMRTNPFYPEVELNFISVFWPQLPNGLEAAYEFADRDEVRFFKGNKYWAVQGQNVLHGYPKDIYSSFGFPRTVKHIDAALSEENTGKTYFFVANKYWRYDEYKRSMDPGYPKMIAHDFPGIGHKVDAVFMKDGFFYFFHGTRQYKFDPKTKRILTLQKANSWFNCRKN
Source text: as §1

MMP-2 = biological target: T3, MMP-2 (Homo sapiens, UniProt P08253); experiment: MMP-2 off-target inhibition; assay type: biochemical
T3 sequence (P08253 110-660): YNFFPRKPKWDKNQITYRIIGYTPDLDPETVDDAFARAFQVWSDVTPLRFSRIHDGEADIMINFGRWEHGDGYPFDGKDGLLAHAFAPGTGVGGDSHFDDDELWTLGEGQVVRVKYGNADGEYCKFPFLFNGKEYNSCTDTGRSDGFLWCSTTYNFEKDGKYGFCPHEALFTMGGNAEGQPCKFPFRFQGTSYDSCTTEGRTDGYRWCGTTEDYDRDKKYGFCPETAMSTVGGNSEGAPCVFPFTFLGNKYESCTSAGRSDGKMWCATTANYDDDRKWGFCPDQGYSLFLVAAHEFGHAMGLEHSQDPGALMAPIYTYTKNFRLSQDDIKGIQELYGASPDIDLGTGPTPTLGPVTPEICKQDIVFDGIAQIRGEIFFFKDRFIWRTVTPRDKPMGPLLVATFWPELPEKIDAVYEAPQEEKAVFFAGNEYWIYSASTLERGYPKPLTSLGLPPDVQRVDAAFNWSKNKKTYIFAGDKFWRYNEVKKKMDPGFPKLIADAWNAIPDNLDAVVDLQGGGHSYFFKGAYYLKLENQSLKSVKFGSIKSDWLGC
Source text: as §1

T1 sequence (O15379 whole entry): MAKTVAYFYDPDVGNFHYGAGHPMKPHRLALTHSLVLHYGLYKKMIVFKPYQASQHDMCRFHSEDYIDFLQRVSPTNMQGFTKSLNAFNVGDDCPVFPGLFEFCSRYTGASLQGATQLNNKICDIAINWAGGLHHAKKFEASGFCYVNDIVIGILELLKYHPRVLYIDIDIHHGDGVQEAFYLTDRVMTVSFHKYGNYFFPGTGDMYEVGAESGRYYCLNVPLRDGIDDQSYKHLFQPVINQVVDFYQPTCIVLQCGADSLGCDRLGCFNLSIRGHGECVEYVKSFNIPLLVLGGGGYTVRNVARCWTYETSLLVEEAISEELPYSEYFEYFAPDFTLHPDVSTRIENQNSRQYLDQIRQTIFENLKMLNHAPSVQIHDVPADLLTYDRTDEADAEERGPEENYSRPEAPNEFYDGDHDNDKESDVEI
T1 sequence (Q9Y618 395-489 partner limits assumed): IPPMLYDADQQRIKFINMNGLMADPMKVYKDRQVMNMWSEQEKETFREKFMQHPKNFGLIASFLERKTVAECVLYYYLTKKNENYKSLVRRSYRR

CC(=O)c1ccc(N2C(=O)CC(S)C2=O)cc1 (stereo not drawn) [Compound 25, 1-(4-Acetylphenyl)-3-mercaptopyrrolidine-2,5-dione]
IC50 (HDAC-3): > 100 µM
hydroxyproline released (collagenolytic activity of ColQ1) (ColQ1): significantly reduced amount of hydroxyproline released compared to control
inhibition at 100 µM [1]: 100 ± 2%
inhibition at 100 µM (MMP-1): < 10%
inhibition at 50 µM (MMP-2; 50 µM compound, read-out: MMP-2 % inh @50µM): < 10%
inhibition at 100 µM (MMP-2; read-out: MMP-2 % inhibition @ 100 μM, 100 μM compound): 14 ± 4%
